The results in this text go back to publication PMC8799717, “Pharmacological targeting PIKfyve and tubulin as an effective treatment strategy for double-hit lymphoma” (Cell Death Discovery, 2022).

Among the targets are RIOK2 (Homo sapiens, UniProt Q9BVS4); NEK2 (Homo sapiens, UniProt P51955); EPHA5 (Homo sapiens, UniProt P54756); BRAF (Homo sapiens, UniProt P15056); MET (Homo sapiens, UniProt P08581); PLK4 (Homo sapiens, UniProt O00444); BMX (Homo sapiens, UniProt P51813); FLT3(N841I) (Homo sapiens, UniProt P36888, N841I); PIK3CA(Q546K) (Homo sapiens, UniProt P42336, Q546K); HCK (Homo sapiens, UniProt P08631); CAMKK1 (Homo sapiens, UniProt Q8N5S9); MAPKAPK5 (Homo sapiens, UniProt Q8IW41); FYN (Homo sapiens, UniProt P06241); CDK5 (Homo sapiens, UniProt Q00535).

Assay in all cases: biochemical
Common to all, as to set-up: KINOMEscan active-site-directed competition binding panel, 468 kinases, percent of DMSO control at 1 uM
Conditions in all cases: KINOMEscan binding, percent of DMSO control; read-out: Ctrl%

The target of another test is T1, DMPK2 (Homo sapiens, UniProt Q6DT37).
T1 construct: gene CDC42BPG

The next test concerns the target T2, MST1 (Homo sapiens, UniProt Q13043).
T2 construct: gene STK4

The target in the next test is T3, CDK4-cyclinD3 (Homo sapiens, UniProt P11802).
T3 construct: cyclinD3

The next test deals with T4, MLK3 (Homo sapiens, UniProt Q16584).
T4 construct: gene MAP3K11
T4 sequence (Q16584 whole entry): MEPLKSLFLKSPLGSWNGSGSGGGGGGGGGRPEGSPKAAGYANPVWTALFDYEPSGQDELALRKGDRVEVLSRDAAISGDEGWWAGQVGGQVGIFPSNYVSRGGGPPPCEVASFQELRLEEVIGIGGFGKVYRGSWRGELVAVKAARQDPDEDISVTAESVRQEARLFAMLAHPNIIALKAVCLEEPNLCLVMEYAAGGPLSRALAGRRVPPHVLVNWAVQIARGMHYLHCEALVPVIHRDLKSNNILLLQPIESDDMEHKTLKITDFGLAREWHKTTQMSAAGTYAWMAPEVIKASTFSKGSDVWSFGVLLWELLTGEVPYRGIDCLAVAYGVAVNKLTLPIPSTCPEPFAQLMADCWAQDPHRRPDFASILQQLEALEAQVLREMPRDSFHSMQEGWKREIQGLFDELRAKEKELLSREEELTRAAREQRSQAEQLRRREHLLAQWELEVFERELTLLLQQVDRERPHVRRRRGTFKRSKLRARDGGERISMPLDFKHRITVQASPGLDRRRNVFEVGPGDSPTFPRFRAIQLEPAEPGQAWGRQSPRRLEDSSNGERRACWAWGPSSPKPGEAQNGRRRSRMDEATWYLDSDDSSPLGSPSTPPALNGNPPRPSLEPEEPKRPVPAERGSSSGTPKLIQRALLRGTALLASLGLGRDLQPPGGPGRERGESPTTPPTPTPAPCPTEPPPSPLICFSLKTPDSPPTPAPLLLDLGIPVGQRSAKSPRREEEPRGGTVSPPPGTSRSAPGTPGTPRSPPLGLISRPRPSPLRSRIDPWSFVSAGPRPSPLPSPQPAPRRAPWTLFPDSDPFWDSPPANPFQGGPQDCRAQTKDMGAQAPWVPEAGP

Another test concerns the target T5, DLK (Homo sapiens, UniProt Q12852).
T5 construct: gene MAP3K12

A further test has as its target T6, CDC2L1 (Homo sapiens, UniProt P21127).
T6 construct: gene CDK11B

Test [1] has as its target T7, JAK3(JH1domain-catalytic) (Homo sapiens, UniProt P52333).
T7 construct: JH1domain-catalytic

Another test has as its target T8, IKK-beta (Homo sapiens, UniProt O14920).
T8 construct: gene IKBKB

For another test, the target named is T9, BIKE (Homo sapiens, UniProt Q9NSY1).
T9 construct: gene BMP2K
T9 sequence (Q9NSY1 whole entry): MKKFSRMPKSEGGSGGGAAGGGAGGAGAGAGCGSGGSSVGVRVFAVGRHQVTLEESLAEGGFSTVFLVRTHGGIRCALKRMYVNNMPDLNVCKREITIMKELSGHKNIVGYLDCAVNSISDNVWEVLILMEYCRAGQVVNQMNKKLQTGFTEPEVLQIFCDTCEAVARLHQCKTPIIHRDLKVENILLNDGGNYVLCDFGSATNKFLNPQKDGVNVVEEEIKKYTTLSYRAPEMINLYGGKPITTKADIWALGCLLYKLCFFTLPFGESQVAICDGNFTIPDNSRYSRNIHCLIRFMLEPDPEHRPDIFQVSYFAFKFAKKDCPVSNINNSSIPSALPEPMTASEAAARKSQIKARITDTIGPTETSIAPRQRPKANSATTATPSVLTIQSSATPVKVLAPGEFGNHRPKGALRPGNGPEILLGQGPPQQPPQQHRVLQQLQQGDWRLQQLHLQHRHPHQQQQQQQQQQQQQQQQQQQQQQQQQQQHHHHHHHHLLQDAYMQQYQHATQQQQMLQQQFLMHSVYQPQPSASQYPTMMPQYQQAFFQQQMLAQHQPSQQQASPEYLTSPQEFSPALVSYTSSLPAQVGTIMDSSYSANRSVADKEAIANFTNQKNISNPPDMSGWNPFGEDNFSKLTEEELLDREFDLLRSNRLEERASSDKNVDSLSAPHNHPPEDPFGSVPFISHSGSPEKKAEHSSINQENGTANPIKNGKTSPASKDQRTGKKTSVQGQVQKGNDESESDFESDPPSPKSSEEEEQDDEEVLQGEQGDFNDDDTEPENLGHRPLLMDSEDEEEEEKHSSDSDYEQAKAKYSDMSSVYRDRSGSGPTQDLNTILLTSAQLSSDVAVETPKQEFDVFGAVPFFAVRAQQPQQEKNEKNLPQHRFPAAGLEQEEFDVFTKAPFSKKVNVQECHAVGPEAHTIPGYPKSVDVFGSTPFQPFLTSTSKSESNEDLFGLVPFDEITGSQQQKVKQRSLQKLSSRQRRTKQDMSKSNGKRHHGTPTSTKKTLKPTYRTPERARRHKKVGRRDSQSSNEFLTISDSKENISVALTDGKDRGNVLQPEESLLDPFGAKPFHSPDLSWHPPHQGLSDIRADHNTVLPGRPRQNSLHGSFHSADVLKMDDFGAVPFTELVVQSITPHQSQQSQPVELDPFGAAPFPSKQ

The next test addresses T10, MEK3 (Homo sapiens, UniProt P46734).
T10 construct: gene MAP2K3

T7 sequence (P52333 whole entry): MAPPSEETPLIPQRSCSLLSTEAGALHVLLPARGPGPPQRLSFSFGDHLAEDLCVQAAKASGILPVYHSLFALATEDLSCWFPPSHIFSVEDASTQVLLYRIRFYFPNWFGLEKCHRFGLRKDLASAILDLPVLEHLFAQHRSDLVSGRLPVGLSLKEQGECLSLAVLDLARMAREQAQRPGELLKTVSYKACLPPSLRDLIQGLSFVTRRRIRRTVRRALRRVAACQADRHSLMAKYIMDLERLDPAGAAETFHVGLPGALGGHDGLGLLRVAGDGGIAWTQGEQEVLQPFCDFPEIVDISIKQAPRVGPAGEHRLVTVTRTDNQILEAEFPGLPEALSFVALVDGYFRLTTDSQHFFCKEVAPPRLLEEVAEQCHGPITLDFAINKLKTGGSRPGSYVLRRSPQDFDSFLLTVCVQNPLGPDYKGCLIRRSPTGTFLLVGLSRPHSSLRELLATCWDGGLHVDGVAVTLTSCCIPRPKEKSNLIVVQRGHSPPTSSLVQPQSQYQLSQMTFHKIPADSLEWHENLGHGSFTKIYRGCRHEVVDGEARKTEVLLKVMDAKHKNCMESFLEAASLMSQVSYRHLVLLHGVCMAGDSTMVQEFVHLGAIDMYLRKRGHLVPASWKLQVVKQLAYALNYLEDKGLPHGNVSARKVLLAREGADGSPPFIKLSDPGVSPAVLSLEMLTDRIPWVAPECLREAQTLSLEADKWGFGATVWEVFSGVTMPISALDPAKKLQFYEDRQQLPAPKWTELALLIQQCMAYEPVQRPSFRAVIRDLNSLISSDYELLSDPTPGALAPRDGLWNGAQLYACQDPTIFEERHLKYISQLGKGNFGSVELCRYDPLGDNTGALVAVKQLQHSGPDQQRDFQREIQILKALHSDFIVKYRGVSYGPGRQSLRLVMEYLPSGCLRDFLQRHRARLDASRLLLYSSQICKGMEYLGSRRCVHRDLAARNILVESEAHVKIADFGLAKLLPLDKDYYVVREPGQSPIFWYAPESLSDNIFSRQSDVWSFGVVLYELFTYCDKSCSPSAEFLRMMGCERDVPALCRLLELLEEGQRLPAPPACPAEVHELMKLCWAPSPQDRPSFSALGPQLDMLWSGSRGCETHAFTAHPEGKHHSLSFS
HCK, sequence (P08631 whole entry): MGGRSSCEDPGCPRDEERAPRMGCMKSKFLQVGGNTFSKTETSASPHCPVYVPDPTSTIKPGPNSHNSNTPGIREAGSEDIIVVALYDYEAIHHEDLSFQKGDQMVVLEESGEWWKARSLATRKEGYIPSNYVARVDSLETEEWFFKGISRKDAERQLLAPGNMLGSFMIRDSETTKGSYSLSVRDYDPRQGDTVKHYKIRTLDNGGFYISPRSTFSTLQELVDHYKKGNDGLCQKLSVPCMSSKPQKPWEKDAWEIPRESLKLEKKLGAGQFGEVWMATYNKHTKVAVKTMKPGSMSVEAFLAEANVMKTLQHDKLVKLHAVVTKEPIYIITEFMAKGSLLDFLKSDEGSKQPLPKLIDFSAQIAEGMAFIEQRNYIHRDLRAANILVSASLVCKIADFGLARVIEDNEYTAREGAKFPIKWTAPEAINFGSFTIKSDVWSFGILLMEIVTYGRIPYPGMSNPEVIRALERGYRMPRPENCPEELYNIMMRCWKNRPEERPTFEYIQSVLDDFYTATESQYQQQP
MAPKAPK5, sequence (Q8IW41 whole entry): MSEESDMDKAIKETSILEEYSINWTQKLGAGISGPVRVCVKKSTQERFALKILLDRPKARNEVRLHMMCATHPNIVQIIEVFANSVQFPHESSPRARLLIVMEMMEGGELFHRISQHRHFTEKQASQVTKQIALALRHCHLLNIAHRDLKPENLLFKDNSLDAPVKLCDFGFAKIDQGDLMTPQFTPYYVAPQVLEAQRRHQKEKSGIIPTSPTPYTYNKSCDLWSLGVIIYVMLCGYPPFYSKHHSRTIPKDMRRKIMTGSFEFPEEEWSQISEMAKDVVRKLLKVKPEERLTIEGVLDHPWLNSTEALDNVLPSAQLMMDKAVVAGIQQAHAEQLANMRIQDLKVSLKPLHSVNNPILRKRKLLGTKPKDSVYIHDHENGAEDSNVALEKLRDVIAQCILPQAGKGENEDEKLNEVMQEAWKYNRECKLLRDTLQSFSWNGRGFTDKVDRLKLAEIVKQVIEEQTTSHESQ
NEK2, sequence (P51955 whole entry): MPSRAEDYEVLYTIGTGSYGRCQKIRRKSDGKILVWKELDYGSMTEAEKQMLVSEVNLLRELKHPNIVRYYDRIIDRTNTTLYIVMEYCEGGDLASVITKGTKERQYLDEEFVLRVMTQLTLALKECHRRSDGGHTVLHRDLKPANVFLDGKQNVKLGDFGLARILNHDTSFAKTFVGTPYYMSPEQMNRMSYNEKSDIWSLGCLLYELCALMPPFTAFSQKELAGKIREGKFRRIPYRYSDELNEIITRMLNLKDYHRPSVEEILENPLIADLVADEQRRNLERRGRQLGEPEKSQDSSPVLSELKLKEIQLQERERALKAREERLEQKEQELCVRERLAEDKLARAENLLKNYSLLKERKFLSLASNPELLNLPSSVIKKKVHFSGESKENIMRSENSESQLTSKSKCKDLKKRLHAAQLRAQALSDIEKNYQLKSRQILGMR
T10 sequence (P46734 whole entry): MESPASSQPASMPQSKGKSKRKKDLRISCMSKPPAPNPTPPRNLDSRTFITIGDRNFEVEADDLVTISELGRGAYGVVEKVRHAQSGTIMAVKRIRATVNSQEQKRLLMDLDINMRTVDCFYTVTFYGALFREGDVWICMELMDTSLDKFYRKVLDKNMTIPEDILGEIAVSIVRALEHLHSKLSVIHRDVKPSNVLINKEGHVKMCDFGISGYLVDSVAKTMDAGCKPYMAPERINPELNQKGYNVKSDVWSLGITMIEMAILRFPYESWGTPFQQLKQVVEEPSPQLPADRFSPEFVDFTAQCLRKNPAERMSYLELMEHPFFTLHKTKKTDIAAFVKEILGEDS

With `Cc1ccc(NC(=O)c2cccc(C(F)(F)F)c2)cc1Nc1cc(-c2cccnc2)nc2[nH]ccc12` [HZX-02-059], the remaining binding at 1 µM on RIOK2 was found to be 91%; at NEK2, 66%; on EPHA5 it was 17%; on DMPK2, 99%; at MST1, 74%; at CDK4-cyclinD3, 93%. In addition, the remaining binding at 1 µM on BRAF was determined as 18%; at MLK3, 87%; on DLK, 100%; at MET it was 94%; at PLK4, 91%; on CDC2L1, 75%. The remaining binding at 1 µM in [1] stood at 100%; on BMX it was 80%; at IKK-beta, 100%; on FLT3(N841I), 88%; at PIK3CA(Q546K), 66%; at HCK, 84%. Also, the remaining binding at 1 µM turned out to be 97% on CAMKK1; 100% on MAPKAPK5; 85% at FYN; 94% on BIKE; 100% on CDK5; 83% at MEK3.
